Experimental data reported in patent publication US20100255580A1, “Differentiation of Human Embryonic Stem Cells” (LIFESCCAN, INC., priority 2007, published 2010).

Key:
Assay type in all cases: cell-based
[1] = system: human embryonic stem cell line H1; test: Real-time PCR of definitive endoderm markers, H1 on human serum or […] (Examples 30, 31, 35); settings: for expression of definitive endoderm markers: H1 passage 55 on human serum coated plates, with activin A, vs activin A only
Protocol: Cultures of the human embryonic stem cell line H1 at passage 55 were grown and differentiated on human serum (Sigma, #H1388, MO) coated plates. 0.5 ml of human serum was added to each well of 6 well tissue culture treated dish, incubated for 1 hr at room temperature, and aspirated before adding human embryonic stem cells. After cells reached 80% confluency, they were treated as follows: 2 days 0.5% FBS containing 10 ng/ml mouse recombinant Wnt3a (R&D) or 100 nM GSK-3B inhibitor IX (Catalog #361550, Calbiochem, CA) and 100 ng/mlActivin A (R&D). This was followed by 3 days 2% FBS plus 100 ng/mlActivin A. Cultures were then analyzed by real-time PCR (FIG. 46, panels a & b). […] These findings parallel our findings for human embryonic stem cells cultured on […]™ or human fibronectin coated plates.
The effectiveness of a number of commercially available GSK-3B inhibitors was evaluated in formation of DE from human embryonic stem cells. The following GSK-3B inhibitors were evaluated at 100 nM: GSK-3B inhibitor VIII (Catalog #361549, Calbiochem, CA), GSK-3B inhibitor IX (Catalog #361550, Calbiochem, CA), GSK-3B inhibitor XI (Catalog #361553, Calbiochem, CA), GSK-3B inhibitor XII (Catalog #361554, Calbiochem, CA). […] Control cultures were treated with low serum plus high dose of AA. FIG. 47, panels a and b depicts the gene expression of definitive endoderm markers at day 5. GSK-3B inhibitor IX and XI were both effective in inducing DE formation as compared to GSK-3B inhibitor VIII and XII.
The following combinations of WNT1+AA were tested:
a) 20 ng/ml of WNT1+100 ng/ml AA in 0.5% FBS+DM-F12 for days 1-2 followed by 2% FBS+DM-F12+100 ng/ml AA for day three, b) 20 ng/ml of WNT1+100 ng/ml AA in 0.5% FBS+DM-F12 for days 1-2 followed by 2% FBS+DM-F12+100 ng/ml AA for days 3-5, c) 10 ng/ml of WNT1+100 ng/ml AA in 0.5% FBS+DM-F12 for days 1-2 followed by 2% FBS+DM-F12+100 ng/ml AA for day three, d) 10 ng/ml of WNT1+100 ng/ml AA in 0.5% FBS+DM-F12 for days 1-2 followed by 2% FBS+DM-F12+100 ng/ml AA for days 3-5, e) 20 ng/ml of WNT1+100 ng/ml AA in 0.5% FBS+DM-F12 for days 1-2 followed by 2% FBS+DM-F12+100 ng/ml AA+20 ng/ml of WNT1 for day three, f) 20 ng/ml of WNT1+100 ng/ml AA in 0.5% FBS+DM-F12 for days 1-2 followed by 2% FBS+DM-F12+100 ng/ml AA+20 ng/ml of WNT1 for days 3-5.

[2] = system: human embryonic stem cell line H7; test: FACS analysis of protein expression following activin A treatment, H7; settings: AA 100 ng/ml
Source text: (§1) The level of expression of definitive endoderm markers was examined by PCR (FIG. 1), FACS (results summarized in Table II), and immunohistochemistry (FIG. 2).
(§2) CXCR4 positive cells were also highly positive for C-kit, EPCAM, CD99, and negative for CD9. The expression pattern for these markers was consistent among all three hES cell lines examined (Table IIB for H7 and Table IIC for H1). […] In parallel, almost 100% of the differentiated cells were […] (FIG. 2).
(§3) Adhered cells were removed from culture plates by five-minute incubation with TrypLE™ Express solution (Invitrogen, CA). Released cells were resuspended in human embryonic stem cell culture medium and recovered by centrifugation, followed by washing and resuspending the cells in a staining buffer consisting of 2% BSA, 0.05% sodium azide in PBS (Sigma, MO). As appropriate, the cells were Fc-receptor blocked for 15 minutes using a 0.1% γ-globulin (Sigma) solution. […] Controls included appropriate isotype matched antibodies, unstained cells, and cells stained only with secondary conjugated antibody. All incubations with antibodies were performed for 30 mins at 4° C. after which the cells were washed with the staining buffer. Samples that were stained with unconjugated primary antibodies were incubated for an additional 30 mins at 4° C. with secondary conjugated PE or -APC labeled antibodies. See Table I for a list of secondary antibodies used. Washed cells were pelleted and resuspended in the staining buffer, and the cell surface molecules were identified using a FACS Array (BD Biosciences) instrument, collecting at least 10,000 events.

[3] = system: human embryonic stem cell line H9; test: Real-time PCR of marker gene expression, H9 on MEF (Examples 2-7)
Protocol: Cells were harvested at the time points indicated in FIG. 3 and assayed by PCR for the expression of genes shown (FIGS. 3, 4 and 5).
After this time interval, the cells were then treated for six days with combinations of retinoic acid and FGF as outlined in Example 2, then the culture medium was removed and replaced with medium comprising DMEM/F12 with 2% FBS, containing the γ-secretase inhibitors L-685,458 at 10 μM for three days.
Cells were continuously cultured for another 3 to 5 days in basal medium with retinoic acid at 1 μM, alone or with bFGF. RNA samples were harvested from cells at various time points along this process to help evaluate the directed differentiation of the cells. Furthermore, culture medium and factors were regularly removed and replenished throughout the differentiation protocol.
RNA extraction, purification, and cDNA synthesis. RNA samples were purified by binding to a silica-gel membrane (Rneasy Mini Kit, Qiagen, CA) in the presence of an ethanol-containing, high-salt buffer followed by washing to remove contaminants. The RNA was further purified using a TURBO DNA-free kit (Ambion, INC), and high-quality RNA was then eluted in water. Yield and purity were assessed by A260 and A280 readings on a spectrophotometer. cDNA copies were made from purified RNA using an ABI (ABI, CA) high capacity cDNA archive kit.
Real-time PCR amplification and quantitative analysis.
Final data were expressed relative to a calibrator sample.

[4] = system: human embryonic stem cell line H1; test: FACS analysis of protein expression following activin A treatment, H1; settings: 5-day AA treatment
Source text: as §1, §2, §3

Wnt-3a
expression of definitive endoderm markers [1]: Robust expression

Activin A: a member of the TGFβ superfamily; R&D Systems; Group 2 = Activin A (100 ng/ml)
CXCR4+ ([2]; 1-day): 6% | CXCR4+ C-Kit+ ([2]; 1-day): 2.97% | CXCR4+ CD9+ ([2]; 1-day): 8.13% | CXCR4+ EPCAM+ ([2]; 1-day): 14.58% | CXCR4+ ([2]; 3-day): 38% | CXCR4+ C-Kit+ ([2]; 3-day): 31.56% | CXCR4+ CD9+ ([2]; 3-day): 24.11% | CXCR4+ EPCAM+ ([2]; 3-day): 36.67% | CXCR4+ ([2]; 5-day): 65.5% | CXCR4+ C-Kit+ ([2]; 5-day): 55.21% | CXCR4+ CD9+ ([2]; 5-day): 2.1% | CXCR4+ EPCAM+ ([2]; 5-day): 54.5% | increase of Nkx2.2 expression compared to samples without activin A ([3]; 50 ng/ml activin A with 50 ng/ml basic FGF and 1 μM Retinoic Acid): about 35 fold | Pdx1 gene expression ([3]; Activin A 100 ng/ml up to seven days, 0% to 2% serum): no Pdx1 gene expression was observed | expression of Brachyury ([3]; H9, activin A 100 ng/ml): decreased | expression of the neuronal marker Zic1 ([3]; H9, activin A 100 ng/ml): no effect | expression of the extraembryonic endoderm markers Sox7 and AFP ([3]; H9, activin A 100 ng/ml, one to seven days): time-dependent decrease | anterior endoderm markers, Cerberus, Otx-1 and Hex genes ([3]; H9, activin A 100 ng/ml, three and five days): significant up regulation | expression of CXCR4, GATA4, HNF-3beta, Mix11 and Sox-17 mRNA ([3]; H9 line, activin A 100 ng/ml, two, five and eight days): time-dependent increase | expression of Ngn3 or Insulin ([3]; activin A alone or in combination with retinoic acid and FGFs): did not induce | expression of Pdx1 ([3]; activin A or retinoic acid alone): did not induce | CXCR4+ [4]: 92.78% | CXCR4+/C-kit+ [4]: 92.90% | CXCR4+/CD9+ [4]: 7.03% | CXCR4+/CD99+ [4]: 88.78% | CXCR4+/EPCAM [4]: 87.99%

O=C1Nc2cc(Br)ccc2/C1=C1/Nc2ccccc2/C1=N\O [GSK-3B inhibitor IX, reference compound]
inducing DE formation ([1]; H1P54 on MATRIGEL, 100 nM for first two days, compared to GSK-3B inhibitor VIII and XII): effective | expression of definitive endoderm markers [1]: Robust expression
